Patent publication US9738668B2
“Also recorded” adds a separate entry of the source.

Experiments:
SK-N-SH cells [1] = experiment: Mitochondrial cytochrome c oxidase (CcO) activity in Aβ-treated cells; format: cell-based; details: for CcO activity, inhibitor alone: 1 μM inhibitor without Aβ; for CcO activity: 5 μM oligomer Aβ1-42 plus 1 μM inhibitor, 48 hours
Experimental: SK-NSH cells were treated with 5 μM oligomer Aβ plus 1 μM of ABAD inhibitor; inhibitor alone; vehicle (VEH) without inhibitor; or Aβ alone. Forty-eight hour later, CcO activity (μmol protein mg^−1 min^−1) was measured in cell lysates.
The CcO activity was measured according to known methods (Du, et al. (2008) Nat. Med. 14:1097-105) with a cytochrome c oxidase kit (Sigma). In brief, SK-N-SH cells were incubated with ABAD inhibitor and oligomer Aβ for 48 hours. After washing the cells twice with PBS, the cells were collected and concentration was determined by the Bradford method. A suitable volume of cells and enzyme solution was added to 475 μl assay buffer. The reaction was triggered by the addition of 25 μl freshly prepared ferrocytochrome C substrate solution into the cuvette. Changes in OD550 nm were recorded immediately with an Amersham Biosciences ULTROSPECT 3100 pro spectrophotometer.
To assess the effect of ABAD inhibitor on Aft-induced mitochondrial respiratory function, CcO activity was determined.

SK-N-SH cells [2] = experiment: ATP levels in Aβ-treated cells; format: cell-based; details: for ATP levels: 5 μM Aβ1-42 plus 1 μM inhibitor; for ATP levels, inhibitor alone: inhibitor without Aβ
Experimental: Forty-eight hour later, ATP levels (μmol mg^−1 protein) were measured in cell lysates.
To determine the effect of ABAD inhibitors on Aβ-induced impairment in energy metabolism, ATP levels were measured. […] ATP levels were measured in the cell lysates. […] Therefore, ABAD inhibitors can block mitochondrial dysfunction mediated by Aβ.

[3] = tested on: hippocampal long-term potentiation; experiment: Hippocampal long-term potentiation (LTP) in slices from treated mice; format: in vivo; details: hippocampal slices from treated mAPP mice
Experimental: LTP was induced by theta-burst stimulation (TBS) 20 minutes after baseline recordings in hippocampal slices from Non-Tg mice treated with vehicle (n=9 slices from 3 mice), Non-Tg mice treated with Compound 8 (n=9 slices from 3 mice), mAPP mice treated with vehicle (n=8 slices from 3 mice), and mAPP mice treated with Compound 8 (n=8 slices from 3 mice). LTP is expressed as percentage potentiation of baseline (100%)(FIG. 5A).
LTP is expressed as percentage potentiation of baseline (100%)(FIG. 7A).
Synaptic failure in AD is largely reflected by impaired long-term synaptic plasticity in terms of long-term potentiation (LTP). […] Representative field excitatory post-synaptic potentials (fEPSP) waveforms are provided in FIGS. 5A and 7A and the residual potentiation from fEPSP slopes occurring over the last 5 minutes of LTP recording are provided in FIGS. 5B and 7B.

brain mitochondria = experiment: Mitochondria swelling assay in response to Ca2+; design: species or system mice; details: for calcium-mediated mitochondrial swelling: with calcium
Experimental: Brain from mice without white matter was used for mitochondrial isolation. Brain was homogenized in 9 ml of ice-cold EB buffer (1 mmol EDTA, 1-6 mg/ml BSA) using a Dounce homogenizer until no particles could be seen. Homogenates were centrifuged at 1300×g for 5 minutes. Supernatant from this fraction was carefully laid on top of a 15% PERCOLL solution (10 ml) and then centrifuged at 16000 RPM for 10 minutes. The pellet was carefully mixed with 9 ml of mitochondrial buffer (4.098% D-mannitol, 2.56% sucrose, 0.034% K2HPO4, pH 7.3-7.4) and 200 μl of 1% digitonin. After 5 minutes incubation on ice, the mixture was centrifuged at 8000 RPM for 10 minutes. Mitochondrial pellet was washed once with mitochondrial buffer. Subsequently, the mitochondrial pellet was resuspended in 100 μl of mitochondrial buffer and was used for further experiments.
A proper amount of mitochondria was resuspended into 1 ml swelling assay buffer (150 mM KCl, 2 mM KH2PO4, 10 mM HEPES, pH 7.4) and energized by 1 mM glutamate and 1 mM malate. Calcium at varying concentrations was added into the assay buffer to trigger mitochondrial swelling. Mitochondrial permeability transition was determined by studying the rate of change in absorbance at 540 nm via a spectrophotometer.
Given that the Compounds 4, 8 and 15 could inhibit ABAD activity, it was determined whether these same compounds could decrease mitochondrial permeability transition pore (mPTP) formation.

[4] = Solubility in solvents during LC method development; format: physicochemical
Experimental: During the development of a detection method for analytes 4, 8 and 15, multiple solvents were tested to find the optimal mobile phase. […] Acetonitrile was selected for better peak shape and compatibility with serum/brain protein precipitation. Compounds 8 and 15 were chosen as IS, because of their structural similarity. Selected reaction monitoring (SRM) acquisitions were used for sensitivity and extended dynamic range. The cone voltage and collision energy were optimized for 4, 8 and 15 and the IS by continuously infusing a mixture of the two. The optimum cone voltage was 30V.

cells = experiment: MTT reduction assay (cell survival and toxicity); format: cell-based; details: 1, 10, 50, 100 μM, 48 to 66 hours
Experimental: The MTT (3-(4,5-dimethylthiazol-2-yl)-2,5-diphenyltetrazolium bromide) assay, which is widely used to measure cell proliferation and to screen for anticancer drugs, was used for assessing cell viability. Cells were treated with a range of ABAD compounds at 1, 10, 50, and 100 μM for 48 hours and then subjected to MTT reduction assay following the manufacture's instruction.
The effect of ABAD inhibitors on cell viability and toxicity was assessed using MTT reduction assay and trypan blue exclusion, which are widely used to assess cell survival and toxicity and to screen for drugs toxicity. Cells were treated with a range of concentrations of ABAD compound (4 and 8) at 1, 10, 50, 100 μM for 48 to 66 hours.

mAPP mice = experiment: Morris water maze learning and memory in Alzheimer's Disease transgenic mice; format: in vivo; details: for latency to find the hidden platform: treated vs untreated AD mice; for number of crossings at the target location / percent of time spent in the target quadrant: treated vs untreated mAPP mice, probe trial
Experimental: Wild-type mice (Non Tg) were also administered Compound 8 (n=5) and vehicle (n=5). Each mouse was given four 60-second trials per day for six consecutive days to find the hidden platform in a Morris water maze.
Wild-type mice were also administered Compound 8 […]. Each mouse was given four 60-second trials per day for seven consecutive days to find the hidden platform in a Morris water maze.
Each mouse was given four 60-second trials per day for six consecutive days to find the hidden platform in a Morris water maze.
In addition, the effect of Compounds 4 and 8 on learning and memory of Alzheimer's Disease (AD) transgenic mice was evaluated. Six month and 9-14 month-old transgenic mice overexpressing a mutated form of the human amyloid precursor protein (mAPP mice) and their wild-type (non Tg) littermates were used in this study. […] Moreover, performance in a spatial MWM trial was evaluated using crossings over the platform area (an index of memory precision; Morris (1984) J. Neurosci. Methods 11:47-60), percent of time spent in target quadrant (an index of memory retrieval; Morris (1984) J. Neurosci. Methods 11:47-60), and swim paths.

COc1ccc2nc(N[C@@H](c3ccc(O)cc3)P(=O)(OC)OC)sc2c1 (racemic) [Compound 8, Dimethyl ((4-hydroxyphenyl)((6-methoxybenzo[d]thiazol-2-yl)amino)methyl)phosphonate]
CcO activity, inhibitor alone (SK-N-SH cells [1]): had no effect on CcO activity | CcO activity (SK-N-SH cells [1]): reversed the Aβ-mediated decrease of CcO activity | ATP levels (SK-N-SH cells [2]): rescued ATP levels | ATP levels, inhibitor alone (SK-N-SH cells [2]): comparable to cells treated with vehicle alone | hippocampal long-term potentiation (LTP) [3]: impairments were diminished; also recorded: protective effects | calcium-mediated mitochondrial swelling (brain mitochondria): antagonized calcium-mediated mitochondrial swelling | mitochondrial swelling without calcium (brain mitochondria): did not affect mitochondrial swelling | solubility in methanol or acetonitrile [4]: dissolved readily | solubility in water [4]: dissolved partially | MTT reduction (cells): did not exhibit decreased MTT reduction | latency to find the hidden platform (mAPP mice): significantly shorter latency | number of crossings at the target location (mAPP mice): significantly more | percent of time spent in the target quadrant (mAPP mice): significantly more

COC(=O)c1cc([C@H](Nc2nc3ccc(OC)cc3s2)P(=O)(OC)OC)ccc1O [Compound 4, Methyl 5-((dimethoxyphosphoryl)((6-methoxybenzo[d]thiazol-2-yl)amino)methyl)-2-hydroxybenzoate]
CcO activity, inhibitor alone (SK-N-SH cells [1]): had no effect on CcO activity | CcO activity (SK-N-SH cells [1]): reversed the Aβ-mediated decrease of CcO activity | ATP levels (SK-N-SH cells [2]): rescued ATP levels | ATP levels, inhibitor alone (SK-N-SH cells [2]): comparable to cells treated with vehicle alone | hippocampal long-term potentiation (LTP) [3]: impairments were diminished; also recorded: protective effects | calcium-mediated mitochondrial swelling (brain mitochondria): antagonized calcium-mediated mitochondrial swelling | mitochondrial swelling without calcium (brain mitochondria): did not affect mitochondrial swelling | solubility in methanol or acetonitrile [4]: dissolved readily | solubility in water [4]: dissolved partially | MTT reduction (cells): did not exhibit decreased MTT reduction | latency to find the hidden platform (mAPP mice): significantly shorter latency | number of crossings at the target location (mAPP mice): significantly more | percent of time spent in the target quadrant (mAPP mice): significantly more
